Counter-ions that a name gives are not always drawn.
Experiments:
[1] = molecular target: Rat H3 (Rattus norvegicus, UniProt Q9QYN8); assay: Rat H3 radioligand binding assay; details: similar procedure as rhesus binding
Description: (§1) Rhesus H3 radioligand binding assay was performed using rhesus H3 receptor membranes (prepared as described above), [3H]-Methylhistamine (Perkin Elmer) and WGA SPA beads (wheat germ agglutinin scintillation proximity assay) beads (Amersham). The assay was performed in 96-well Opti-Plates (Packard). Each reaction contained 50 μl rhesus H3 membranes (20-30 μg total protein), 50 μl WGA SPA beads (0.1 μg) and 50 μl of 83 Ci/mmol [^3H]-Methylhistamine (final concentration 2 nM) and 50 μl of tested compound. The compounds of this invention and/or vehicle were diluted with binding buffer from 10 mM DMSO stocks. Assay plates were sealed with TopSeal (Perkin Elmer) and mixed on shaker (25° C., 1 hour). Assay plates were read on TopCount scintillation counter (Packard). Results were analyzed by Hill transformation and Ki values were determined by Cheng-Prusoff equation. Similar procedures were employed to determine the binding data for rat and mouse.

[2] = molecular target: T1, rhesus (Macacca Mulatta) H3 receptor (Macaca mulatta, UniProt Q865E1); assay: Rhesus H3 [3H]-Methylhistamine radioligand binding assay; set-up: species or system rhesus monkey (Macacca Mulatta); details: displacement of [3H]-Methylhistamine (2 nM), rhesus H3 membranes, Cheng-Prusoff
T1 construct: pcDNA5/FRT/TO (Invitrogen) containing the rhesus monkey (Macacca Mulatta) 445 amino acid H3 receptor
Description: Rhesus H3 membranes were prepared from the Flp-In T-REx 293 Cell Line (Invitrogen) stably transfected with pcDNA5/FRT/TO (Invitrogen) containing the rhesus monkey (Macacca Mulatta) 445 amino acid H3 receptor. (Genbank #AY231164). Stably transfected cultures were amplified in tissue culture flasks by standard tissue culture methods and induced to express rhesus H3 by exposure to 500 ng/ml tetracycline (Cellgro) for 24 hours. After induction, cells were dissociated from flasks utilizing Cell Stripper (Cellgro). Cells were centrifuged (1 K×g, 5 min) and pellet frozen in an ethanol-dry ice bath to disrupt cell membranes. Frozen cell pellet was re-suspended in 5 mM HEPES (pH 7.4, Invitrogen) at 10 ml/1000 cm2 of harvested cells. The cell suspension was drawn through an 18 gauge needle (2-3×) followed by a 23 gauge needle (2-3×) to further disrupt cell membranes. The cell suspension was centrifuged (40K×g, 30 min). Cell membrane pellet was re-suspended in 5 mM HEPES (pH 7.4, Invitrogen) at a final protein concentration of 10 mg/ml. Rhesus H3 membranes were stored under liquid nitrogen prior to use in [3]-Methylhistamine and GTPγS radioligand binding assays.
as §1

[3] = tested on: Rats; assay: Forced-Swimming Test in Rats; format: in vivo; details: rat, p.o. twice, 5-min test
Description: This example further illustrates the study of efficacy of the compounds of this invention as antidepressive agents in animal models.
The procedure was a modification of that described by Porsolt et al. (1977) Depression: a new animal model sensitive to antidepressant treatments. Nature 266:730-2. Rats were placed in individual glass cylinder (40 cm height, 18 cm diameter) containing water (22-25° C.) to a height of 15 cm. Two swimming sessions were conducted (a 15-min training session followed 24 h later by a 5-min test). After each swimming session, rats were placed under a heating lamp to avoid hypothermia. The duration of immobility was measured during the 5-min test.
Example 1 of this invention was administered p.o. twice (15 min pre-test followed by first injection 24 h prior to 5 min test) at a dosage of 10 mg/kg.
Example 2 of this invention was administered p.o. twice (15 min pre-test followed by first injection 24 h prior to 5 min test) at a dosage levels of 0.1, 1, and 10 mg/kg.

[4] = molecular target: Mouse H3 (Mus musculus, UniProt P58406); assay: Mouse H3 radioligand binding assay; details: similar procedure as rhesus binding
Description: as §1

Chain of Rat H3 (Q9QYN8 whole entry): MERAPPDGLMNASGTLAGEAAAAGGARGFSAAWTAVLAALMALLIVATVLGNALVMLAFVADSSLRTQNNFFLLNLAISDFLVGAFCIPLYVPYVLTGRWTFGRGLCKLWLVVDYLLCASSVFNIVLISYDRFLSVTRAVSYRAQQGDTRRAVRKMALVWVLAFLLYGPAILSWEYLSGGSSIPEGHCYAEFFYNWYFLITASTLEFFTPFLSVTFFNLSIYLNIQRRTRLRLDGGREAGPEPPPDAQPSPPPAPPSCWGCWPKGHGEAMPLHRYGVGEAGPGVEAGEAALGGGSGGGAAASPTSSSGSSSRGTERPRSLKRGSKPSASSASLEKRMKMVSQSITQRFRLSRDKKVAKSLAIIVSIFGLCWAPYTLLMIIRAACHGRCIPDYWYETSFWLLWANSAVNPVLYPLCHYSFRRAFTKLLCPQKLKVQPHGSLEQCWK
Chain of Mouse H3 (P58406 whole entry): as the sequence (Q9QYN8 whole entry) above, with T15A, A286T, A290G, R387H, I389V counted along it
T1 sequence (Q865E1 1-445): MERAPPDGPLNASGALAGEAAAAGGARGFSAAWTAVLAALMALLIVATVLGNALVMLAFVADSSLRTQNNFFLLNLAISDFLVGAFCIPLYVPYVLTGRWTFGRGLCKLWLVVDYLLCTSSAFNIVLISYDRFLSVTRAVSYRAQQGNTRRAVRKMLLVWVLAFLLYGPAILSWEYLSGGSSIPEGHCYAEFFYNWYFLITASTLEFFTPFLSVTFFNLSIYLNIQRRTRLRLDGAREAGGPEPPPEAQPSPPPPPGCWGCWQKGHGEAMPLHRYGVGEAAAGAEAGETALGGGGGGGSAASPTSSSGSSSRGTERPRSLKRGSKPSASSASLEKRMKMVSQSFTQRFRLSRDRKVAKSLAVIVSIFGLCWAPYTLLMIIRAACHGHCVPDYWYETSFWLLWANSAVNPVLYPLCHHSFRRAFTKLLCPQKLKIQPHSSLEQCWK

Compound | Ki [1] | Ki [2] | activity in forced-swimming test (duration of immobility) ([3]; 10 mg/kg) | Ki [4] | activity in forced-swimming test (duration of immobility) ([3]; 0.1 mg/kg) | activity in forced-swimming test (duration of immobility) ([3]; 1 mg/kg) | melting point
C[C@H]1CCCN1[C@H]1CCN(c2ccc(CC(=O)NC3CCOCC3)cc2)C1 [Example 1, 2-[4-((2S,3′S)-2-Methyl-[1,3′]bipyrrolidinyl-1′-yl)-phenyl]-N-(tetrahydro-pyran-4-yl)-acetamide] | 8.32 nM | 2.5 nM | active | 10.8 nM |  |  | 
C[C@H]1CCCN1[C@H]1CCN(c2ccc3cc(C(=O)NC4CCOCC4)ccc3c2)C1 [Example 2, 6-((2S,3′S)-2-Methyl-[1,3′]bipyrrolidinyl-1′-yl)-naphthalene-2-carboxylic acid (tetrahydro-pyran-4-yl)amide] | 9.79 nM | 2.99 nM | active | 19.6 nM | active | active | 
C[C@H]1CCCN1[C@H]1CCN(c2ccc(C(=O)NC3CCOCC3)cc2)C1 [Example 3, 4-((2S,3′S)-2-Methyl-[1,3′]bipyrrolidinyl-1′-yl)-N-(tetrahydro-pyran-4-yl)-benzamide] | 15 nM | 1.98 nM |  | 10.1 nM |  |  | 180 °C
Cc1cc(N2CC[C@H](N3CCC[C@@H]3C)C2)ccc1C(=O)NC1CCOCC1 [Example 4, 2-Methyl-4-((2S,3′S)-2-methyl-[1,3′]bipyrrolidinyl-1′-yl)-N-(tetrahydro-pyran-4-yl)-benzamide] | 19.7 nM | 1.52 nM |  | 12.1 nM |  |  | 147 °C
C[C@H]1CCCN1[C@H]1CCN(c2ccc(C(=O)NCC3CCOCC3)cc2)C1 [Example 5, 4-((2S,3′S)-2-Methyl-[1,3′]bipyrrolidinyl-1′-yl)-N-(tetrahydro-pyran-4-ylmethyl)-benzamide] | 19.1 nM | 1.24 nM |  | 40.3 nM |  |  | 
C[C@H]1CCCN1[C@H]1CCN(c2ccc(CC(=O)NC3CCN(C(=O)OC(C)(C)C)CC3)cc2)C1 [Example 6] | 19.4 nM | 2.75 nM |  |  |  |  | 
C[C@H]1CCCN1[C@H]1CCN(c2ccc(CC(=O)NC3CCNCC3)cc2)C1 [Example 7, 2-[4-((2S,3′S)-2-Methyl-[1,3′]bipyrrolidinyl-1′-yl)-phenyl]-N-piperidin-4-yl-acetamide hydrochloride] | 1.12 nM | 0.804 nM |  |  |  |  | 
CCOC(=O)N1CCC(NC(=O)Cc2ccc(N3CC[C@H](N4CCC[C@@H]4C)C3)cc2)CC1 [Example 8, 4-{2-[4-((2S,3′S)-2-Methyl-[1,3′]bipyrrolidinyl-1′-yl)-phenyl]-acetylamino}-piperidine-1-carboxylic acid ethyl ester] | 8.25 nM | 1.59 nM |  |  |  |  | 
C[C@H]1CCCN1[C@H]1CCN(c2ccc(CC(=O)NC3CCN(CC4CCCC4)CC3)cc2)C1 [Example 9, N-(1-Cyclopentylmethyl-piperidin-4-yl)-2-[4-((2S,3′S)-2-methyl-[1,3′]bipyrrolidinyl-1′-yl)-phenyl]-acetamide] | 1.26 nM | 0.69 nM |  |  |  |  | 
CNC(=O)C1CCN(Cc2ccc(N3CC[C@H](N4CCC[C@@H]4C)C3)cc2)CC1 [Example 10, 1-[4-((2S,3′S)-2-Methyl-[1,3′]bipyrrolidinyl-1′-yl)-benzyl]-piperidine-4-carboxylic acid methylamide; hydrochloride] | 0.929 nM | 0.466 nM |  | 4.4 nM |  |  | 

Source: patent publication US8754095B2, “Substituted N-heterocycloalkyl bipyrrolidinylphenyl amide derivatives, preparation and therapeutic use thereof” (Sanofi, priority 2010, dated 2014)
